Test system: MAGP-1
Assay: MAGP-1 screening method: MAGP-1 mRNA (RT-qPCR, normalized to GAPDH) in treated normal human dermal fibroblasts
Type: cell-based
Settings: 48 hours treatment
Method: Normal human dermal fibroblasts (Cascade Biologics) were cultured in 100 mm plates with 10 ml of DMEM with 10% serum and incubated for 24 hours at 37° C. and 10% CO2. After 24 hours, stock solutions of test compounds/plant extracts were made in appropriate solvents (e.g., DMSO). Cells were treated with test material or respective vehicle control diluted in growth medium for 48 hours in a humidified 37° C. incubator with 10% CO2. After incubation, growth medium from each plate was removed and 800 ul of TRIzol Reagent (Invitrogen) was added to the plates. Cell lysates were collected and placed in −80° C. freezer until RNA isolation and analysis.
RNA was isolated by following the manufacturer's procedures. Briefly, the cell lysates were brought to room temperature. 0.2 ml of chloroform per 1 ml of TRIzol® Reagent was added. The tubes were shaken vigorously for 15 seconds and incubated at ambient temperature for 2 to 3 minutes. The samples were centrifuged at 12,000×g for 15 minutes at 2 to 8° C. Following centrifugation; the mixture separated into multiple phases, and RNA remains exclusively in the upper aqueous phase.
The aqueous phase was then transferred to a fresh tube. The RNA was precipitated from the aqueous phase by mixing with 0.5 ml of isopropyl alcohol per 1 ml of TRIzol® Reagent was used for the initial homogenization. Samples were incubated at 15 to 30° C. for 10 minutes and centrifuged at 12,000×g for 10 minutes at 2 to 8° C. […] The sample was mixed by vortexing and centrifuged at 7,500×g for 5 minutes at 2 to 8° C. The RNA pellet was briefly air dried. RNA was dissolved in RNase-free water, and the concentration of total RNA was determined by using Nanodrop (Thermo Scientific, DE).
Reverse Transcription (RT) reactions were conducted in a total volume of 20 μl. The RT mixture was prepared to contain 2 μl 10× TaqMan RT buffer, 4.4 μl 25 mM MgCl2, 4.0 μl dNTP mix, 1.0 μl Random Hexamer, 0.4 μl RNase Inhibitor, 0.5 μl MultiScribe Reverse Transcriptase (50 U/ml), 2.0 μg of RNA, and RNase-free water to make up the final volume of 20 μl. […] After the RT step, the reactions were stored at −20° C. for qPCR analysis.
Quantitative Polymerase Chain Reaction (qPCR) was conducted in a total volume of 20 μl. Applied Biosystems (AB) Universal PCR master mix was used. The mixture was prepared to contain 10 μl of Taqman Universal PCR mix, 1 μl of primer and probe mix, 2 μl of RT product, and 7 μl of deionized water.
The temperature profiles for QPCR were 50° C. for 2 min, and 95° C. for 10 min for 1 cycle, then at 95° C. for 15 sec, and 60° C. for 1 min for 40 cycles. Values for MAGP-1 mRNA were collected along with those for the reference genes GAPDH.

Molecule	Activity Level (percent increase in mRNA for MAGP-1 vs vehicle control) (concentration 0.01%)	Activity Level (percent increase in mRNA for MAGP-1 vs vehicle control) (concentration 0.001%)
Cc1cccc(Cc2nc3ccccc3n2CC(=O)N2CCOCC2)c1 [Compound of structure II, 2-{2-[(3-methylphenyl)methyl]-1H-1,3-benzodiazol-1-yl}1-(morpholin-4-yl)ethan-1-one]	++++ (++++: >80%)	–
O=C(O)CCSCCC(=O)O [Thiodipropionic acid (TDPA), Thiodipropionic acid]	–	++ (++: 41-60%)
lysine-threonine-phenylalanine-lysine [KTFK]	–	++++ (++++: >80%)
CC(C)CN(Cc1ccc(OS(C)(=O)=O)cc1)S(=O)(=O)c1ccccc1 [Compound of structure I, 4-((N-isobutylphenylsulfonamido)methyl)phenyl methanesulfonate]	++++ (++++: >80%)	–

Source: patent US10849840B2, “Compositions and methods for stimulation MAGP-1 to improve the appearance of skin” (New Avon LLC, priority 2010, dated 2020)
